Results as given in patent US10059704B2, “1,4-disubstituted 1,2,3-triazoles, methods for preparing same, and diagnostic and therapeutic uses thereof” (CENTRE NATIONAL DE LA RECHERCHE SCIENTIFIQUE (C.N.R.S.), priority 2011, dated 2018).
Where two headings read alike, the source gives them in different places.

Key:
nicotinic receptors Rα7 = nicotinic receptors Rα7 (Rattus norvegicus, UniProt Q05941); assay: biochemical; assay type: binding
[1] = Solubility (solvents listed in table); details: solvents in which the compound is soluble, in words
[2] = rat frontal cortex membranes, [125I]α-bungarotoxin 2 nM, 22° C., 3 hours, Ki calculated from IC50 (Cheng and Prussof), read-out: Activity on Rα7

nicotinic receptors Rα7, sequence (Q05941 23-502): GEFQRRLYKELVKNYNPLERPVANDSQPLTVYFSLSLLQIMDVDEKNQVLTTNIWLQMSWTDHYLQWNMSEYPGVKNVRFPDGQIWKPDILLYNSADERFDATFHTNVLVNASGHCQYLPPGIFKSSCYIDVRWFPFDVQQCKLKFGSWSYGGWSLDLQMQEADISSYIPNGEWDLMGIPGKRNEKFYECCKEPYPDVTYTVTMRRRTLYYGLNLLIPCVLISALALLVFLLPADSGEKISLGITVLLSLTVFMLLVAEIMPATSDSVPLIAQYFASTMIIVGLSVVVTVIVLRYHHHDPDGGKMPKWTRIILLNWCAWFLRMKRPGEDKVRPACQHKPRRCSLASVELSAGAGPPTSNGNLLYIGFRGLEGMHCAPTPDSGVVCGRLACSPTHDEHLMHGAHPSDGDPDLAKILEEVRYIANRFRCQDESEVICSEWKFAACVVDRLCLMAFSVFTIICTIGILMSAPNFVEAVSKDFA

| SMILES | Ki (nicotinic receptors Rα7) | melting point | Solubility [1] | Ki (nicotinic receptors Rα7; [2]) |
| --- | --- | --- | --- | --- |
| CN1[C@@H]2CC[C@H]1C[C@@H](n1cc(-c3ccc4sccc4c3)nn1)C2 [Compound 25, Endo-3-(4-(1-Benzothiophen-5-yl)-1H-1,2,3-triazol-1-yl)tropane] | 14 ± 4 nM | 163 °C | M = 324.44 g/mol C18H20N4S CHCl3 − DMSO | – |
| CN1[C@@H]2CC[C@H]1C[C@@H](n1cc(-c3ccc4occc4c3)nn1)C2 [Compound 26, Endo-3-(4-(1-benzofuran-5-yl)-1H-1,2,3-triazol-1-yl)topane] | 13 ± 5 nM | 104 °C | M = 308.38 g/mol C18H20N4O CHCl3 − DMSO | – |
| COc1ccc(-c2cn([C@H]3C[C@H]4CC[C@@H](C3)N4C)nn2)cc1 [Compound 19, Endo-3-(4-(4-methoxyphenyl)-1H-1,2,3-triazol-1-yl)tropane] | 283 ± 76 nM | 118 °C | M = 298.38 g/mol C17H22N4O CHCl3 − DMSO | – |
| FCc1ccc(-c2ccc(-c3cn([C@H]4CN5CCC4CC5)nn3)s2)cc1 [Compound 112, (R)-3-[4-[5-[4-(fluoromethyl)phenyl]-2-thienyl]-1H-1,2,3-triazol-1-yl]quinuclidine] | – | 199 °C | – | 5 nM |
| FC1(c2cn(-c3ccc(Br)cc3)nn2)CN2CCC1CC2 (stereo not drawn) [Compound 71, 3-Fluoro-3-(1-(4-bromophenyl)-1H-1,2,3-triazol-4-yl)quinuclidine] | – | 127 °C | – | 150 ± 10 nM |
| COc1ccc(-c2cn([C@H]3CN4CCC3CC4)nn2)cc1 [Compound 46, (R)-3-(4-(4-Methoxyphenyl)-1H-1,2,3-triazol-1-yl)quinuclidine] | – | 122 °C | M = 284.36 g/mol C16H20N4O DMSO | – |
| O=Cc1ccc(-c2ccc(-c3cn([C@H]4CN5CCC4CC5)nn3)cc2)s1 [Compound 97, (R)-5-[4-[1-[quinuclidin-3-yl]-1H-1,2,3-triazol-4-yl]phenyl]thiophene-2-carbaldehyde] | 90 to 120 nM | 228 °C | – | – |
| c1csc(-c2ccc(-c3cn([C@H]4CN5CCC4CC5)nn3)s2)c1 [Compound 61, (R)-3-(4-(2,7-Bithiophen-5-yl)-1H-1,2,3-triazol-1-yl)quinuclidine] | – | 182 °C | – | 20 ± 2 nM |
| CN1[C@@H]2CC[C@H]1C[C@@H](n1cc(-c3ccc(Cl)c(Cl)c3)nn1)C2 [Compound 24, Endo-3-(4-(3,4-dichlorophenyl)-1H-1,2,3-triazol-1-yl)tropane] | 110 ± 36 nM | 136 °C | M = 337.25 g/mol C16H18Cl2N4 CHCl3 − DMSO | – |
| OCc1ccc(-c2coc(-c3cn([C@H]4CN5CCC4CC5)nn3)c2)cc1 [Compound 90, (R)-[4-[5-[1-[quinuclidin-3-yl]-1H-1,2,3-triazol-4-yl]-3-furyl]phenyl]methanol] | 9 nM | 202 °C | – | – |
| Fc1ccc(-c2cn([C@H]3CN4CCC3CC4)nn2)cn1 [Compound 51, (R)-3-(4-(6-fluoropyridin-3-yl)-1H-1,2,3-triazol-1-yl) quinuclidine] | – | 147 °C | – | 469 ± 6 nM |
| CN1[C@@H]2CC[C@H]1C[C@@H](n1cc(-c3cccc(F)c3)nn1)C2 [Compound 22, Endo-3-(4-(3-fluorophenyl)-1H-1,2,3-triazol-1-yl)tropane] | 16 ± 9 nM | 124 °C | M = 286.35 g/mol C16H19FN4 CHCl3 − DMSO | – |
| c1cc2cc(-c3cn([C@H]4CN5CCC4CC5)nn3)ccc2s1 [Compound 55, (R)-3-(4 Benzo[b](thiophen-5-yl)-1H-1,2,3-triazol-1-yl) quinuclidine] | – | 178 °C | – | 19 ± 1 nM |
| CN1[C@@H]2CC[C@H]1C[C@@H](n1cc(-c3ccc(Br)s3)nn1)C2 [Compound 27, Endo-3-(4-(5-bromothiophen-2-yl)-1H-1,2,3-triazol-1-yl)tropane] | 275 ± 43 nM | 138 °C | M = 353.28 g/mol C14H17BrN4S CHCl3 − DMSO | – |
| Fc1ccc(-c2coc(-c3cn([C@H]4CN5CCC4CC5)nn3)c2)cn1 [Compound 91, (R)-3-[4-[4-(6-fluoro-3-pyridyl)-2-furyl]-1H-1,2,3-triazol-1-yl]quinuclidine] | 117 nM | 210 °C | – | – |
| OCc1cccc(-c2coc(-c3cn([C@H]4CN5CCC4CC5)nn3)c2)c1 [Compound 92, (R)-[3-[5-[1-[quinuclidin-3-yl]-1H-1,2,3-triazol-4-yl]-3-furyl]phenyl]methanol] | 115 nM | 212 °C | – | – |
| CN1[C@@H]2CC[C@H]1C[C@@H](n1cc(-c3ccccc3)nn1)C2 [Compound 16, Endo-3-(4-phenyl-1H-1,2,3-triazol-1-yl)tropane] | 168 ± 68 nM | 135 °C | M = 268.36 g/mol C16H20N4 CHCl3 − DMSO | – |
| OCc1cccc(-c2cccc(-c3cn([C@H]4CN5CCC4CC5)nn3)c2)c1 [Compound 99, (R)-[3-[3-[1-[quinuclidin-3-yl]-1H-1,2,3-triazol-4-yl]phenyl]phenyl]methanol] | – | 201 °C | – | 1.4 nM |
| c1coc(-c2ccc(-c3cn([C@H]4CN5CCC4CC5)nn3)s2)c1 [Compound 62, (R)-3-(4-(5-(Furan-2-yl)thiophen-2-yl)-1H-1,2,3-triazol-1-yl)quinuclidine] | – | 180 °C | – | 10 ± 1 nM |
| COc1ccc2cc(-c3cn([C@H]4CN5CCC4CC5)nn3)ccc2c1 [Compound 49, (R)-3-(4-(6-Methoxynaphthalen-2-yl)-1H-1,2,3-triazol-1-yl)quinuclidine] | – | 186 °C | – | 196 ± 21 nM |
| OCc1ccc(-c2cccc(-c3cn([C@H]4CN5CCC4CC5)nn3)c2)cc1 [Compound 98, (R)-[4-[3-[1-[quinuclidin-3-yl]-1H-1,2,3-triazol-4-yl]phenyl]phenyl]methanol] | 105 nM | 214 °C | – | – |
| COC(=O)c1ccc(-c2ccc(-c3cn([C@H]4CN5CCC4CC5)nn3)s2)cc1F [Compound 105, Methyl-2-fluoro-4-[5-[1-[(3R)-quinuclidin-3-yl]-1H-1,2,3-triazol-4-yl]-2-thienyl]benzoate] | 85 nM | 250 °C | – | – |
| OCc1ccc(-c2ccc(-c3cn([C@H]4CN5CCC4CC5)nn3)cc2)cc1 [Compound 93, (R)-[4-[4-[1-[quinuclidin-3-yl]-1H-1,2,3-triazol-4-yl]phenyl]phenyl]methanol] | 137 nM | 250 °C | – | – |
| CN1[C@@H]2CC[C@H]1C[C@@H](n1cc(-c3ccc(F)cc3)nn1)C2 [Compound 17, Endo-3(4-(4-fluorophenyl)-1H-1,2,3-triazol-1-yl)tropane] | 210 ± 31 nM | 254 °C | M = 286.35 g/mol C16H19FN4 CHCl3 − DMSO | – |
| Fc1ccc(-c2cccc(-c3cn([C@H]4CN5CCC4CC5)nn3)c2)cn1 [Compound 100, (R)-3-[4-[3-(6-fluoro-3-pyridyl)phenyl]-1H-1,2,3-triazol-1-yl]quinuclidine] | – | 164 °C | – | 16 nM |
| Brc1cccc(-c2cn([C@H]3CN4CCC3CC4)nn2)c1 [Compound 83, (R)-3-[4-(3-bromophenyl)-1H-1,2,3-triazol-1-yl]quinuclidine] | 11 nM | 188 °C | – | – |
